Measurements reported in patent US10160747B2, “Compounds and methods for kinase modulation, and indications therefor” (Plexxikon Inc., priority 2016, dated 2018).

How the values were obtained:
[1] = system: MOLM-14 D835Y (endogenous FLT3 ITD and transfected FLT3 D835Y); experiment: MOLM-14 D835Y cell proliferation assay (CellTiter-Glo); type: cell-based; conditions: Homo sapiens, MOLM-14, 72 h; 3 d growth, GMean
Text: (§1) The FLT3 inhibitors may be assessed using the MOLM-14, Acute Myeloid Leukemia cell line that endogenously expresses FLT3 ITD or derivatives of the human FLT3 AML cell line which acquired the D835Y (activation loop) of F691L (gatekeeper) mutation after selection in escalating doses of the FLT3 Inhibitor AC220. FLT3 inhibitors may also be assessed using cells that are engineered to express mutant FLT3. For engineered cells, murine Ba/F3 cells were transfected with full-length FLT3 ITD/D835Y mutations. The parental BA/F3 cells are dependent upon Interleukin-3 (IL-3) for survival, and introduction of the FLT3 constructs rendered these cells dependent upon FLT3 kinase activity when cultured in the absences of IL-3. Engineered BA/F3 cell growth assays can be performed in either the […] of IL-3, to assess the compound inhibition of FLT3 or to detect the presence of off-target activity, respectively. Inhibitors of FLT3 kinase activity reduce or eliminate the FLT3 oncogenic signaling, resulting in reduced cell proliferation. This inhibition is measured as a function of compound concentration to assess IC50 values.
(§2) Cell lines used in proliferation assays are as follows in Table 2:
(§3) Cells were seeded at 1×10^4 cells per well of a 96 well cell culture plate in 50 μl of cell culture medium. Compounds were dissolved in DMSO, typically at a concentration of 0.5 mM and were serially diluted 1:3 for a total of eight points and added to the cells to final concentrations of […], 0.0041, 0.0014 and 0.00046 μM in 100 μl cell culture medium (final concentration 0.2% DMSO). […] The cells were incubated at 37° C., 5% CO2 for three days. CellTiter-Glo Buffer (Promega Cell Viability Assay catalog #G7573) and substrate were equilibrated to room temperature, and enzyme/substrate Recombinant Firefly Luciferase/Beetle Luciferin was reconstituted. The cell plates were equilibrated to room temperature for 30 minutes, then lysed by addition of an equivalent volume of the Celltiter-Glo Reagent. The plate was mixed for 10 minutes on a plate shaker to lyse the cells. The plates were read on a Tecan M1000 using Luminescence protocol modified to read 0.1 s per well. The luminescence reading assesses the ATP content, which correlates directly with cell number such that the reading as a function of compound concentration was used to determine the IC50 value.

[2] = target: T1, BA/F3-FLT3-ITD + D835Y (Homo sapiens, UniProt P36888, D835Y, cells depend on it, form not given); experiment: Engineered BA/F3 cell growth assay, FLT3 ITD/D835Y; type: cell-based, murine; conditions: 3 d growth
T1 sequence (P36888 with tags, fused parts or gaps INS600HVDFREYEYD/D835Y): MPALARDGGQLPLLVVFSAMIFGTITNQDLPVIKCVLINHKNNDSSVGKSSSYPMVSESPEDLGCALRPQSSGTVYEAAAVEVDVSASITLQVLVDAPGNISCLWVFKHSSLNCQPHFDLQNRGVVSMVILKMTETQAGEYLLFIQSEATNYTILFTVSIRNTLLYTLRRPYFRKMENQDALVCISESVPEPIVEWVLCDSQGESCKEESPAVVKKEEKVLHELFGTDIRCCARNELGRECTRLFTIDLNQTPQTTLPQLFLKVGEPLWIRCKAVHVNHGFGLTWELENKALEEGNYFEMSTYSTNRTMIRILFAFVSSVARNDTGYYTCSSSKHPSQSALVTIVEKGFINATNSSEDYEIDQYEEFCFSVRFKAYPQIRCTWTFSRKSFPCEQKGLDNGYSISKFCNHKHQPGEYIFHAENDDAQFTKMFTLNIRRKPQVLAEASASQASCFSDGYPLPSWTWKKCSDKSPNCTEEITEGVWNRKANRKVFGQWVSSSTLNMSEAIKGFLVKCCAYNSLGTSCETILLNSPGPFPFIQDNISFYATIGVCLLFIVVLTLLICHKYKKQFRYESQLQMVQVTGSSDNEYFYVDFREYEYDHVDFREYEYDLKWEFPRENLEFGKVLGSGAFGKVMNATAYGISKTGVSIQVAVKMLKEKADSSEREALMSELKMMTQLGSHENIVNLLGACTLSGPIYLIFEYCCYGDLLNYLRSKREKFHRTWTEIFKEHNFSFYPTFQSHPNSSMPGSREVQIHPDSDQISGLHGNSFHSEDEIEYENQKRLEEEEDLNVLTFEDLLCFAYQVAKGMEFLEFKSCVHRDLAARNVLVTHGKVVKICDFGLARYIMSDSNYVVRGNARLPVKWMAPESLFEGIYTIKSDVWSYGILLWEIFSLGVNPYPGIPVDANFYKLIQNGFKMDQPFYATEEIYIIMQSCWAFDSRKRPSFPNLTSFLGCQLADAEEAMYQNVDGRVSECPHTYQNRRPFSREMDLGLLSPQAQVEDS
Text: as §1, §2, §3
The BaF3 assays as developed used to generate the data in Tables 7 and 8 are identical and differ only in minor details in regards to vector design, not biological function. Both introduce the FLT3 gene with MV4-11 based ITD duplications and resistance mutations from an exogenous promoter (MSCV and CMV respectively) in the exact same cell line.
As a result of the expressed FLT3 protein, the IL3 factor dependent BaF3 cell clones become IL3-factor independent.
The compounds in Tables 7 and 8 were tested in an identical fashion by incubating such clones in with increasing concentrations. Inhibition of the FLT3 activity by an inhibitor results in factor dependency, which in the absence of IL3 results in cell death in the three day growth assays.

[3] = system: MOLM-14 F691L (endogenous FLT3 ITD and transfected FLT3 F691L); experiment: MOLM-14 F691L cell proliferation assay (CellTiter-Glo); type: cell-based; conditions: Homo sapiens, MOLM-14, 72 h; 3 d growth, GMean
Text: as §1, §2, §3

Cn1cc(Nc2ncc(-c3ccc(CC(=O)NCc4cc(F)ccc4Cl)cc3)cn2)cn1 [Compound P-0124, N-[(2-chloro-5-fluoro-phenyl)methyl]-2-[4-[2-[(1-methylpyrazol-4-yl)amino]pyrimidin-5-yl]phenyl]acetamide]
0.0001 to 10 µM: IC50 [1] | GI50 [2] | IC50 [3]

CCc1cncc(NC(=O)Cc2ccc(-c3cnc(Nc4cnn(C(F)F)c4)nc3)cc2)c1 [Compound P-0223, 2-[4-[2-[[1-(difluoromethyl)pyrazol-4-yl]amino]pyrimidin-5-yl]phenyl]-N-(5-ethyl-3-pyridyl)acetamide]
0.0001 to 10 µM: IC50 [1] | GI50 [2] | IC50 [3]

COc1ncc(NC(=O)Cc2cc(F)c(-c3cnc(Nc4cn[nH]c4)nc3)cc2F)cc1C(F)(F)F [Compound P-0226, 2-[2,5-difluoro-4-[2-(1H-pyrazol-4-ylamino)pyrimidin-5-yl]phenyl]-N-[6-methoxy-5-(trifluoromethyl)-3-pyridyl]acetamide]
0.0001 to 10 µM: IC50 [1] | GI50 [2] | IC50 [3]

COc1cc(-c2cc3cc(-c4ccc(CC(=O)Nc5ccnc(C(F)(F)F)c5)nc4)cnc3[nH]2)ccn1 [Compound P-0187, 2-[5-[2-(2-methoxy-4-pyridyl)-1H-pyrrolo[2,3-b]pyridin-5-yl]-2-pyridyl]-N-[2-(trifluoromethyl)-4-pyridyl]acetamide]
0.0001 to 10 µM: IC50 [1] | GI50 [2] | IC50 [3]

COc1cc(-c2cc3cc(-c4ccc(CC(=O)Nc5cnc(OC)c(C(F)(F)F)c5)c(F)c4)cnc3[nH]2)ccn1 [Compound P-0009, 2-[2-fluoro-4-[2-(2-methoxy-4-pyridyl)-1H-pyrrolo[2,3-b]pyridin-5-yl]phenyl]-N-[6-methoxy-5-(trifluoromethyl)-3-pyridyl]acetamide]
0.0001 to 10 µM: IC50 [1] | GI50 [2] | IC50 [3]

Cc1noc2ncc(NC(=O)Cc3ccc(-c4cnc(Nc5cnn(C)c5)nc4)cc3)cc12 [Compound P-0130, N-(3-methylisoxazolo[5,4-b]pyridin-5-yl)-2-[4-[2-[(1-methylpyrazol-4-yl)amino]pyrimidin-5-yl]phenyl]acetamide]
0.0001 to 10 µM: IC50 [1] | GI50 [2] | IC50 [3]

COc1ccc(-c2cc3cc(-c4ccc(CC(=O)Nc5cnc(OC)c(C(F)(F)F)c5)cc4F)cnc3[nH]2)cn1 [Compound P-0012, 2-[3-fluoro-4-[2-(6-methoxy-3-pyridyl)-1H-pyrrolo[2,3-b]pyridin-5-yl]phenyl]-N-[6-methoxy-5-(trifluoromethyl)-3-pyridyl]acetamide]
0.0001 to 10 µM: IC50 [1] | GI50 [2] | IC50 [3]

COc1ncc(NC(=O)Cc2ccc(-c3cnc(Nc4cnn(C)c4)nc3)cc2)cc1Br [Compound P-0118, N-(5-bromo-6-methoxy-3-pyridyl)-2-[4-[2-[(1-methylpyrazol-4-yl)amino]pyrimidin-5-yl]phenyl]acetamide]
0.0001 to 10 µM: IC50 [1] | GI50 [2] | IC50 [3]

Cn1cc(Nc2ncc(-c3ccc(CC(=O)Nc4ccnc(C(C)(C)C)c4)cc3)cn2)cn1 [Compound P-0112, N-(2-tert-butyl-4-pyridyl)-2-[4-[2-[(1-methylpyrazol-4-yl)amino]pyrimidin-5-yl]phenyl]acetamide]
0.0001 to 10 µM: IC50 [1] | GI50 [2] | IC50 [3]

COc1ncc(NC(=O)Cc2ccc(-c3cnc4[nH]c(C#CC5CC5)cc4c3)cc2)cc1C(F)(F)F [Compound P-0008, 2-[4-[2-(2-cyclopropylethynyl)-1H-pyrrolo[2,3-b]pyridin-5-yl]phenyl]-N-[6-methoxy-5-(trifluoromethyl)-3-pyridyl]acetamide]
0.0001 to 10 µM: IC50 [1] | GI50 [2] | IC50 [3]

Cn1cc(Nc2ncc(-c3ccc(CC(=O)Nc4cnc5[nH]ccc5c4)cc3)cn2)cn1 [Compound P-0119, 2-[4-[2-[(1-methylpyrazol-4-yl)amino]pyrimidin-5-yl]phenyl]-N-(1H-pyrrolo[2,3-b]pyridin-5-yl)acetamide]
0.0001 to 10 µM: IC50 [1] | GI50 [2] | IC50 [3]
